Source: US20120238865A1, “Method for Measuring the Physiological Parameters of Brain Interstitial Fluid and Brain Extracellular Space” (priority 2009, published 2012)

Assays:
[1] = Linear fitting of MRI signal intensity vs contrast agent concentration in agarose; format: physicochemical
Experimental: According to the curve, when the concentration of the contrast agents is in the range of 0-5 mM, the SI increased with the concentration. The concentration is related to the SI. In the curve, the abscissa is the concentration of the contrast agent which reflects the mobility of the ISF in brain ECS and the ordinate is the SI of MRI. It is known by the persons skilled in art that the SI here may be the directly SI or the result which is calculated indirectly from the SI such as T1. In the exemplary embodiment, the contrast agents are Gd-DPTA. Other non-ferromagnetic, non-neurotoxicity and extracellular contrast agents, such as T1 positive MRI contrast agent, also can be used here.
According to the curve shown in FIG. 2, the liner equation of the curve is obtained as below
In the four experiments, injecting contrast agents with different concentration range are into agarose, the distribution of SI of the MRI is measured in different magnetic field intensity or different MRI sequence. When quantitative measuring the contrast agents via the SI, the value of K and B can be determined via linear fitting according to the experimental conditions,
FIG. 3 is a fitting curve of the SI and the concentration of the contrast agents corresponding to the Experiment 1 shown in Table 1. It is the measurement result under the circumstances that the magnetic field intensity is 1.5T, the MRI sequence is FLASH 2D, the contrast agent is Gd-DTPA and the concentration range is 0 to 1.2 mM. According to the fitting curve, the value of K is 337.434 and the value of B is 184.344.

[2] = MRI of contrast agent diffusion after injection into brain ECS of rat caudate nucleus; format: in vivo
Experimental: In this exemplary embodiment, the rat 10 is anesthetized and incised in the scalp along the sagittal suture. The periosteum was separated and the bregma was exposed. 1 μL Gd-DTPA with concentration range of 5 to 25 mM is injected into the brain ECS of the rat caudate nucleus at the rate of 0.1 μL/min.
The microsyringe is slowly removed 5 minutes after injecting. In FIG. 4, the rat narcotized is placed in the wrist coil 30 in the prone position and sent into the imaging device 20 with the examination couch 12. A T1 weighted sequence is used for the MRI scanning MR images from the imaging device 20 are processed in the image-processing unit of the controlling device 40.
FIG. 6 is a curve of SI increment (ASI) vs. time of the contrast agents along X direction of FIG. 5 at the spots respectively 1 mm, 2 mm, and 3 mm away from the injection site. The increment of SI reflected the concentration increment of the contrast agents. In FIG. 6, the peak of ASI appears in the region which is 1 mm away from the injection site about 1 h after injection, and then value of ASI slowly falls down.

## O=C([O-])CN(CCN(CC(=O)[O-])CC(=O)O)CCN(CC(=O)[O-])CC(=O)O.[Gd+3] [Gd-DTPA]
[1]; Experiment 1: 1.5T, FLASH 2D, concentration range 0-1.2 mM
  Value of K (slope of SI vs concentration): 337.434
[1]; Experiment 2: 3T, FLASH 2D, concentration range 0-1.2 mM
  Value of K (slope of SI vs concentration): 247.834
[1]; Experiment 3: 3T, 3D MP-RAGE, concentration range 0-0.5 mM
  Value of K (slope of SI vs concentration): 1913.686
[1]; Experiment 4: 3T, 3D MP-RAGE, concentration range 0-1 mM
  Value of K (slope of SI vs concentration): 1174.5
[2]; 1 mm away from injection site along X direction, 1 μL 5 to 25 mM into caudate nucleus
  Time of peak of SI increment (ASI) after injection: about 1 h
[2]; spots 2 mm and 3 mm away from injection site (cortex)
  Course of SI increment (ASI, concentration increment) over time: first slowly increases then slowly decreases
